In ChEMBL document CHEMBL1201862, “PubChem BioAssay data set” (2004):
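96-well plates; 48 h exposure; 5 concentrations. Endpoints by linear interpolation between flanking doses. Not reached: highest tested concentration assigned. Abbreviation: GI50, concentration required for 50% inhibition of growth.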 The source made the active and inactive calls. Cut-off read from the data, not from the text of the source: active = GI50 up to about 1.1 µM and inactive = higher.

Legend:
Experiment in all cases: NCI-60 cell line screen, 48 h
HT-29 = tested on: HT-29
TK-10 = tested on: TK-10
786-0 = tested on: 786-0
SF-268 = tested on: SF-268
OVCAR-3 = tested on: OVCAR-3
SK-OV-3 = tested on: SK-OV-3
UACC-62 = tested on: UACC-62
SW-620 = tested on: SW-620
SR = tested on: SR
IGROV-1 = tested on: IGROV-1
NCI-H23 = tested on: NCI-H23
M14 = tested on: M14
SNB-19 = tested on: SNB-19
A498 = tested on: A498
LOX IMVI = tested on: LOX IMVI
UO-31 = tested on: UO-31
HCT-15 = tested on: HCT-15
OVCAR-8 = tested on: OVCAR-8
SF-295 = tested on: SF-295
HOP-92 = tested on: HOP-92
DMS-273 = tested on: DMS-273
SN12C = tested on: SN12C
MOLT-4 = tested on: MOLT-4
HOP-62 = tested on: HOP-62
U-251 = tested on: U-251
KM12 = tested on: KM12
NCI-H522 = tested on: NCI-H522
XF498 = tested on: XF498
SF-539 = tested on: SF-539
SK-MEL-2 = tested on: SK-MEL-2
NCI-H460 = tested on: NCI-H460
K562 = tested on: K562
LXFL 529 = tested on: LXFL 529
DLD-1 = tested on: DLD-1
CAKI-1 = tested on: CAKI-1
Malme-3M = tested on: Malme-3M
UACC-257 = tested on: UACC-257
RXF 631 = tested on: RXF 631
HCC 2998 = tested on: HCC 2998
CCRF-CEM = tested on: CCRF-CEM
ACHN = tested on: ACHN
SK-MEL-28 = tested on: SK-MEL-28
SNB-75 = tested on: SNB-75
A549 = tested on: A549
SNB-78 = tested on: SNB-78
HCT-116 = tested on: HCT-116
COLO 205 = tested on: COLO 205
HL-60 = tested on: HL-60
OVCAR-5 = tested on: OVCAR-5
M19-MEL = tested on: M19-MEL
HOP-18 = tested on: HOP-18
DMS-114 = tested on: DMS-114
OVCAR-4 = tested on: OVCAR-4
NCI-H226 = tested on: NCI-H226
RXF 393 = tested on: RXF 393
RPMI-8226 = tested on: RPMI-8226
SK-MEL-5 = tested on: SK-MEL-5
KM-20L2 = tested on: KM-20L2
EKVX = tested on: EKVX

Measured: GI50

COC1=NN2C(OC)(c3ccccc3)c3c(-c4ccccc4)sc(-c4ccccc4)c3C2(c2ccccc2)S1 (stereo unspecified)
inactive: HT-29 > 100 µM | TK-10 > 100 µM | 786-0 > 100 µM | SF-268 > 100 µM | OVCAR-3 > 10 µM | SK-OV-3 > 100 µM | UACC-62 > 100 µM | SW-620 > 100 µM | SR > 100 µM | IGROV-1 > 100 µM | NCI-H23 > 100 µM | M14 > 10 µM | SNB-19 > 100 µM | A498 > 100 µM | LOX IMVI > 100 µM | UO-31 > 100 µM | OVCAR-8 > 100 µM | SF-295 > 100 µM | HOP-92 > 100 µM | DMS-273 > 100 µM | SN12C > 100 µM | MOLT-4 > 100 µM | HOP-62 > 10 µM | U-251 > 100 µM | KM12 > 100 µM | NCI-H522 > 100 µM | XF498 > 100 µM | SF-539 > 100 µM | SK-MEL-2 > 100 µM | NCI-H460 > 100 µM | K562 > 100 µM | LXFL 529 > 100 µM | DLD-1 > 100 µM | CAKI-1 > 100 µM | Malme-3M > 100 µM | UACC-257 > 100 µM | RXF 631 > 100 µM | HCC 2998 > 100 µM | CCRF-CEM > 100 µM | ACHN > 100 µM | SK-MEL-28 > 100 µM | SNB-75 > 100 µM | A549 > 100 µM | SNB-78 > 100 µM | HCT-116 > 100 µM | COLO 205 > 100 µM | HL-60 > 100 µM | OVCAR-5 > 100 µM
> 100 µM: HCT-15

COc1cc2cnc3c4cc(OC)c(OC(C)C)cc4ccc3c2cc1OC
inactive: HT-29 > 100 µM | TK-10 > 100 µM | 786-0 > 100 µM | M19-MEL > 100 µM | SF-268 > 100 µM | OVCAR-3 > 100 µM | HOP-18 > 100 µM | SK-OV-3 > 100 µM | UACC-62 > 100 µM | SW-620 > 100 µM | SR > 100 µM | IGROV-1 > 100 µM | NCI-H23 > 100 µM | M14 > 100 µM | SNB-19 > 100 µM | DMS-114 > 100 µM | LOX IMVI > 100 µM | UO-31 > 100 µM | OVCAR-8 > 100 µM | SF-295 > 100 µM | HOP-92 > 100 µM | DMS-273 > 100 µM | SN12C > 100 µM | MOLT-4 > 100 µM | HOP-62 > 100 µM | OVCAR-4 > 100 µM | U-251 > 100 µM | KM12 > 100 µM | NCI-H522 > 100 µM | NCI-H226 > 100 µM | SF-539 > 100 µM | SK-MEL-2 > 100 µM | NCI-H460 > 100 µM | RXF 393 > 100 µM | K562 > 100 µM | LXFL 529 > 100 µM | DLD-1 > 100 µM | RPMI-8226 > 100 µM | SK-MEL-5 > 100 µM | CAKI-1 > 100 µM | Malme-3M > 100 µM | UACC-257 > 100 µM | RXF 631 > 100 µM | HCC 2998 > 100 µM | CCRF-CEM > 100 µM | ACHN > 100 µM | SK-MEL-28 > 100 µM | SNB-75 > 100 µM | A549 > 100 µM | KM-20L2 > 100 µM | SNB-78 > 100 µM | HCT-116 > 100 µM | COLO 205 > 100 µM | HL-60 > 100 µM | EKVX > 100 µM | OVCAR-5 > 100 µM
> 100 µM: HCT-15
